Bounds are passed on as bounds.

Assay [1] deals with T1, Human M3 receptor (Homo sapiens, UniProt P20309).
T1 construct: purchased Perkin Elmer
Kind of assay: biochemical. The assay is classed as binding. The conditions noted are these: read-out: M3 Range.

The target of assay [2] is T2, Human β2 adrenoceptor (Homo sapiens, UniProt P07550).
T2 construct: purchased Perkin Elmer
Put plainly: β2 adrenoceptor radioligand binding assay. Put shortly:
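Human β2 receptor membranes incubated 1 h at room temperature with 0.3 nM [125I]cyanopindolol and compound in pH 7.4 HEPES buffer (0.5% DMSO); 2 μM s-propranolol defined non-specific binding. Bound label counted after filtration; IC50 from competition curves, converted to Ki via Cheng–Prusoff.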

T1 sequence (P20309 whole entry): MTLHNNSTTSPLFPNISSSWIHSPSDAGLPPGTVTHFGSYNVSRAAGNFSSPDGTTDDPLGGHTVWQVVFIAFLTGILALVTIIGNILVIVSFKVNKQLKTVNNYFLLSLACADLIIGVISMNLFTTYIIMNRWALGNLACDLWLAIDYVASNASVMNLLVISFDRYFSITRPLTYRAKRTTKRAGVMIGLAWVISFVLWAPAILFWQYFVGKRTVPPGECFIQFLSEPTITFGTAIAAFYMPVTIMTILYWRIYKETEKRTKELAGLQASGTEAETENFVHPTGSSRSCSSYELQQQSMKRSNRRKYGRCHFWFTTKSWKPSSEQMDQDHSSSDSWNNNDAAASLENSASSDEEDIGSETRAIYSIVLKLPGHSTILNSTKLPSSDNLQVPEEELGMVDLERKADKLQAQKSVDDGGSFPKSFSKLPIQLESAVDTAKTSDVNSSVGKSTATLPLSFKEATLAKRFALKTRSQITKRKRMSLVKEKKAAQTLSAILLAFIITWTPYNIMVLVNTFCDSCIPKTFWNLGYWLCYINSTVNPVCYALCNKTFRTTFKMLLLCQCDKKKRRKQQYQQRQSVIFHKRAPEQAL
T2 sequence (P07550 whole entry): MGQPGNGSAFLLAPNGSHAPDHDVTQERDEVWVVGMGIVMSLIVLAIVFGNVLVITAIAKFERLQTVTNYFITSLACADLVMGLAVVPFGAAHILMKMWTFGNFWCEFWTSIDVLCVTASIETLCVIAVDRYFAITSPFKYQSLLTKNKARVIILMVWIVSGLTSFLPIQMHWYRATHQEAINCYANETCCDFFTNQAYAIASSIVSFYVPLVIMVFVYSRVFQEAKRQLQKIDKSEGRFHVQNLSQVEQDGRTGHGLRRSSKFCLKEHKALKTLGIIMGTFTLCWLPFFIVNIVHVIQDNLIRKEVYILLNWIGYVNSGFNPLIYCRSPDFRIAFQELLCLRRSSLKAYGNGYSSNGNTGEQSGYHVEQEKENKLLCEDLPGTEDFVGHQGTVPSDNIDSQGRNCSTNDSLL

Regarding `COc1cc(C(=O)NCC(=O)N2CC=C(c3cccc([C@](O)(C(=O)OCC4CCN(Cc5ccccc5)CC4)c4ccccc4)c3)CC2)ccc1CNC[C@H](O)c1ccc(O)c2[nH]c(=O)ccc12` [Compound 8E, (1-Benzylpiperidin-4-yl)methyl (S)-2-hydroxy-2-(3-(1-((4-((((R)-2-hydroxy-2-(8-hydroxy-2-oxo-1,2-dihydroquinolin-5-yl)ethyl)amino)methyl)-3-methoxybenzoyl)glycyl)-1,2,3,6-tetrahydropyridin-4-yl)phenyl)-2-phenylacetate], the IC50 in assay [1] was 300 to 3000 pM; in assay [2], below 300 pM.

For `CN(CC(=O)N1CC=C(c2cccc([C@](O)(C(=O)OCC3CCN(Cc4ccccc4)CC3)c3ccccc3)c2)CC1)C(=O)c1ccc(CNC[C@H](O)c2ccc(O)c3[nH]c(=O)ccc23)cc1` [Compound 8F, (1-Benzylpiperidin-4-yl)methyl (S)-2-hydroxy-2-(3-(1-(N-(4-((((R)-2-hydroxy-2-(8-hydroxy-2-oxo-1,2-dihydroquinolin-5-yl)ethyl)amino)-methyl)benzoyl)-N-methylglycyl)-1,2,3,6-tetrahydropyridin-4-yl)phenyl)-2-phenylacetate], the IC50 in assay [1] and in assay [2] was 300 to 3000 pM in each case.

Take `O=C(NCCCNC[C@H](O)c1ccc(O)c2[nH]c(=O)ccc12)c1cncc(-c2cccc([C@](O)(C(=O)OCC3CCN(Cc4ccccc4)CC3)c3ccccc3)c2)n1` [Compound 10, (1-Benzylpiperidin-4-yl)methyl (S)-2-hydroxy-2-(3-(6-((3-(((R)-2-hydroxy-2-(8-hydroxy-2-oxo-1,2-dihydroquinolin-5-yl)ethyl)amino)propyl)carbamoyl)pyrazin-2-yl)phenyl)-2-phenylacetate]: the IC50 in assay [1] and in assay [2] was 300 to 3000 pM throughout.

On to `COc1cc(C(=O)NCc2ccc(-c3cccc([C@](O)(C(=O)OCC4(C)CCN(Cc5ccccc5)CC4)c4ccccc4)c3)s2)c(Cl)cc1CNC[C@H](O)c1ccc(O)c2[nH]c(=O)ccc12` [Compound 11, (1-Benzyl-4-methylpiperidin-4-yl)methyl (S)-2-(3-(5-((2-chloro-4-((((R)-2-hydroxy-2-(8-hydroxy-2-oxo-1,2-dihydroquinolin-5-yl)ethyl)amino)methyl)-5-methoxybenzamido)methyl)thiophen-2-yl)phenyl)-2-hydroxy-2-phenylacetate], for which the IC50 in assay [1] was 300 to 3000 pM; in assay [2], below 300 pM.

In the case of `O=C1c2ccc(CNC[C@H](O)c3ccc(O)c4[nH]c(=O)ccc34)cc2C(=O)N1Cc1ccc(-c2cccc([C@](O)(C(=O)OCC3CCN(Cc4ccccc4)CC3)c3ccccc3)c2)s1` [Compound 12, (1-Benzylpiperidin-4-yl)methyl (S)-2-hydroxy-2-(3-(5-((5-((((R)-2-hydroxy-2-(8-hydroxy-2-oxo-1,2-dihydroquinolin-5-yl)ethyl)amino)methyl)-1,3-dioxoisoindolin-2-yl)methyl)thiophen-2-yl)phenyl)-2-phenylacetate], the IC50 in assay [1] and in assay [2] was 300 to 3000 pM in each case.

Regarding `O=C(NCC(=O)N1CCC(c2cccc([C@](O)(C(=O)OCC3CCN(Cc4ccccc4)CC3)c3ccccc3)c2)CC1)c1ccc(CCNC[C@H](O)c2ccc(O)c3[nH]c(=O)ccc23)cc1` [Compound 13, (1-Benzylpiperidin-4-yl)methyl (S)-2-hydroxy-2-(3-(1-((4-(2-(((R)-2-hydroxy-2-(8-hydroxy-2-oxo-1,2-dihydroquinolin-5-yl)ethyl)amino)ethyl)benzoyl)-glycyl)piperidin-4-yl)phenyl)-2-phenylacetate], the figures for the IC50 in assay [1] and in assay [2] were 300 to 3000 pM and below 300 pM, respectively.

Consider `Cn1nc(C(=O)NCc2ccc(CNC[C@H](O)c3ccc(O)c4[nH]c(=O)ccc34)cc2)cc1-c1cccc([C@](O)(C(=O)OCC2CCN(Cc3ccccc3)CC2)c2ccccc2)c1` [Compound 14, (1-Benzylpiperidin-4-yl)methyl (S)-2-hydroxy-2-(3-(3-((4-((((R)-2-hydroxy-2-(8-hydroxy-2-oxo-1,2-dihydroquinolin-5-yl)ethyl)amino)methyl)-benzyl)carbamoyl)-1-methyl-1H-pyrazol-5-yl)phenyl)-2-phenylacetate], for which the IC50 in assay [1] and in assay [2] was 300 to 3000 pM in each case.

Take `O=C(NCc1ccc(-c2ccc([C@](O)(C(=O)OCC3CCN(Cc4ccccc4)CC3)c3ccccc3)cc2)s1)c1ccc(CNC[C@H](O)c2ccc(O)c3[nH]c(=O)ccc23)cc1` [Compound 15, (1-benzylpiperidin-4-yl)methyl (S)-2-hydroxy-2-(4-(5-((4-((((R)-2-hydroxy-2-(8-hydroxy-2-oxo-1,2-dihydroquinolin-5-yl)ethyl)amino)methyl)benzamido)methyl)-thiophen-2-yl)phenyl)-2-phenylacetate×2 HCOOH]: the IC50 in assay [1] is 300 to 3000 pM; in assay [2] it was below 300 pM.

`COc1cc(C(=O)NCc2ccc(-c3ccc([C@](O)(C(=O)OCC4CCN(Cc5ccccc5)CC4)c4ccccc4)cc3)s2)ccc1CNC[C@H](O)c1ccc(O)c2[nH]c(=O)ccc12` [Compound 15A, (1-benzylpiperidin-4-yl)methyl (S)-2-hydroxy-2-(4-(5-((4-((((R)-2-hydroxy-2-(8-hydroxy-2-oxo-1,2-dihydroquinolin-5-yl)ethyl)amino)methyl)-3-methoxybenzamido)methyl)thiophen-2-yl)phenyl)-2-phenylacetate]: the IC50 in assay [1] is 300 to 3000 pM; in assay [2], below 300 pM.

As for `O=C(NCc1cc(-c2ccc([C@](O)(C(=O)OCC3CCN(Cc4ccccc4)CC3)c3ccccc3)cc2)cs1)c1ccc(CNC[C@H](O)c2ccc(O)c3[nH]c(=O)ccc23)cc1` [Compound 15B, (1-benzylpiperidin-4-yl)methyl (S)-2-hydroxy-2-(4-(5-((4-((((R)-2-hydroxy-2-(8-hydroxy-2-oxo-1,2-dihydroquinolin-5-yl)ethyl)amino)methyl)-benzamido)methyl)thiophen-3-yl)phenyl)-2-phenylacetate], the IC50 is above 3000 pM in assay [1] and 300 to 3000 pM in assay [2].

For `O=C(NCc1cnc(-c2ccc([C@](O)(C(=O)OCC3CCN(Cc4ccccc4)CC3)c3ccccc3)cc2)s1)c1ccc(CNC[C@H](O)c2ccc(O)c3[nH]c(=O)ccc23)cc1` [Compound 15C, (1-benzylpiperidin-4-yl)methyl (S)-2-hydroxy-2-(4-(5-((4-((((R)-2-hydroxy-2-(8-hydroxy-2-oxo-1,2-dihydroquinolin-5-yl)ethyl)amino)methyl)-benzamido)methyl)thiazol-2-yl)phenyl)-2-phenylacetate], the IC50 was 300 to 3000 pM in assay [1] and below 300 pM in assay [2].

Consider `O=C(NCc1ccc(-c2ccc([C@](O)(C(=O)OCC3CCN(Cc4ccccc4)CC3)c3ccccc3)cc2)cn1)c1ccc(CNC[C@H](O)c2ccc(O)c3[nH]c(=O)ccc23)cc1` [Compound 15D, (1-benzylpiperidin-4-yl)methyl (S)-2-hydroxy-2-(4-(6-((4-((((R)-2-hydroxy-2-(8-hydroxy-2-oxo-1,2-dihydroquinolin-5-yl)ethyl)amino)methyl)-benzamido)methyl)pyridin-3-yl)phenyl)-2-phenylacetate], for which the IC50 in assay [1] is 300 to 3000 pM; in assay [2], below 300 pM.
